Test: Leaching test: 100 g fabric soaked in 10 liters stagnant distilled water, 3 days (72 hours)
Type: physicochemical
Conditions: for Leaching of active ingredients: exhaust 80° C. 60 min, cured 180° C. 2 min, post wash
Protocol: (§1) The test procedure for leaching was as follows: 100 g (grams) of fabric as well as control fabrics were soaked in 10 liters of stagnant distilled water in a closed wide mouth jar. After 3 days (72 hours), the water samples were tested for leached substances as per standard analytical methods.
as §1, with “methods. A weight of 100 g fabric was chosen because in the preferred embodiment of the water filter as described further below, each filter comprises a strip of fabric with 210 g/m^2, 3 meters long and 0.16 meters wide, which corresponds to 100 g of fabric.” for “methods.”

Silver
Leaching of active ingredients (in ppm) (0.2% each in mixture (o.w.f), exhaust 80° C., 60 min, curing 180° C., 2 min, unwashed): 7 ppm
Leaching of active ingredients (in ppm) (0.5% each in mixture (o.w.f), exhaust 80° C., 60 min, curing 180° C., 2 min, unwashed): 11 ppm
Leaching of active ingredients (in ppm) (1.0% each in mixture (o.w.f), exhaust 80° C., 60 min, curing 180° C., 2 min, unwashed): 18 ppm
Leeching in ppm (Exhaust + Wash + pad + Wash, exhaust 0.1% o.w.f. each in mixture, 1 gm/liter pad): 0.3 ppm
Leeching in ppm (Exhaust + Wash + pad + Wash, exhaust 0.1% o.w.f. each in mixture, 5 gm/liter pad): 0.5 ppm
Leeching in ppm (Exhaust + Wash + pad + Wash, exhaust 0.1% o.w.f. each in mixture, 10 gm/liter pad): 0.6 ppm
Leeching in ppm (Exhaust + Wash + pad + Wash, exhaust 0.25% o.w.f. each in mixture, 1 gm/liter pad): 3 ppm
Leeching in ppm (Exhaust + Wash + pad + Wash, exhaust 0.25% o.w.f. each in mixture, 5 gm/liter pad): 7 ppm
Leeching in ppm (Exhaust + Wash + pad + Wash, exhaust 0.25% o.w.f. each in mixture, 10 gm/liter pad): 16 ppm
Leeching in ppm (Exhaust + Wash + pad + Wash, exhaust 0.5 (% o.w.f) each in mixture, 1 gm/liter pad): 8 ppm
Leeching in ppm (Exhaust + Wash + pad + Wash, exhaust 0.5 (% o.w.f) each in mixture, 5 gm/liter pad): 14 ppm
Leeching in ppm (Exhaust + Wash + pad + Wash, exhaust 0.5 (% o.w.f) each in mixture, 10 gm/liter pad): 22 ppm
Leeching in ppm (Exhaust + Wash + pad + Wash, exhaust 1.0% o.w.f. each in mixture, 1 gm/liter pad): 14 ppm
Leeching in ppm (Exhaust + Wash + pad + Wash, exhaust 1.0% o.w.f. each in mixture, 5 gm/liter pad): 23 ppm
Leeching in ppm (Exhaust + Wash + pad + Wash, exhaust 1.0% o.w.f. each in mixture, 10 gm/liter pad): 28 ppm
Leeching in ppm (Exhaust + pad + Wash, exhaust 0.1% o.w.f. each in mixture, 1 gm/liter pad): 145 ppm
Leeching in ppm (Exhaust + pad + Wash, exhaust 0.1% o.w.f. each in mixture, 5 gm/liter pad): 235 ppm
Leeching in ppm (Exhaust + pad + Wash, exhaust 0.1% o.w.f. each in mixture, 10 gm/liter pad): 254 ppm
Leeching in ppm (Exhaust + pad + Wash, exhaust 0.25% o.w.f. each in mixture, 1 gm/liter pad): 223 ppm
Leeching in ppm (Exhaust + pad + Wash, exhaust 0.25% o.w.f. each in mixture, 5 gm/liter pad): 257 ppm
Leeching in ppm (Exhaust + pad + Wash, exhaust 0.25% o.w.f. each in mixture, 10 gm/liter pad): 534 ppm
Leeching in ppm (Exhaust + pad + Wash, exhaust 0.5 (% o.w.f) each in mixture, 1 gm/liter pad): 456 ppm
Leeching in ppm (Exhaust + pad + Wash, exhaust 0.5 (% o.w.f) each in mixture, 5 gm/liter pad): 573 ppm
Leeching in ppm (Exhaust + pad + Wash, exhaust 0.5 (% o.w.f) each in mixture, 10 gm/liter pad): 645 ppm
Leeching in ppm (Exhaust + pad + Wash, exhaust 1.0% o.w.f. each in mixture, 1 gm/liter pad): 534 ppm
Leeching in ppm (Exhaust + pad + Wash, exhaust 1.0% o.w.f. each in mixture, 5 gm/liter pad): 654 ppm
Leeching in ppm (Exhaust + pad + Wash, exhaust 1.0% o.w.f. each in mixture, 10 gm/liter pad): 849 ppm
Leeching in ppm (Exhaust + pad, exhaust 0.1% o.w.f. each in mixture, 1 gm/liter pad): 208 ppm
Leeching in ppm (Exhaust + pad, exhaust 0.1% o.w.f. each in mixture, 5 gm/liter pad): 298 ppm
Leeching in ppm (Exhaust + pad, exhaust 0.1% o.w.f. each in mixture, 10 gm/liter pad): 362 ppm
Leeching in ppm (Exhaust + pad, exhaust 0.25% o.w.f. each in mixture, 1 gm/liter pad): 320 ppm
Leeching in ppm (Exhaust + pad, exhaust 0.25% o.w.f. each in mixture, 5 gm/liter pad): 321 ppm
Leeching in ppm (Exhaust + pad, exhaust 0.25% o.w.f. each in mixture, 10 gm/liter pad): 387 ppm
Leeching in ppm (Exhaust + pad, exhaust 0.5 (% o.w.f) each in mixture, 1 gm/liter pad): 398 ppm
Leeching in ppm (Exhaust + pad, exhaust 0.5 (% o.w.f) each in mixture, 5 gm/liter pad): 453 ppm
Leeching in ppm (Exhaust + pad, exhaust 0.5 (% o.w.f) each in mixture, 10 gm/liter pad): 801 ppm
Leeching in ppm (Exhaust + pad, exhaust 1.0% o.w.f. each in mixture, 1 gm/liter pad): 595 ppm
Leeching in ppm (Exhaust + pad, exhaust 1.0% o.w.f. each in mixture, 5 gm/liter pad): 749 ppm
Leeching in ppm (Exhaust + pad, exhaust 1.0% o.w.f. each in mixture, 10 gm/liter pad): 1234 ppm
Leeching in ppm (Exhaust +Wash + pad, exhaust 0.1% o.w.f. each in mixture, 1 gm/liter pad): 86 ppm
Leeching in ppm (Exhaust +Wash + pad, exhaust 0.1% o.w.f. each in mixture, 5 gm/liter pad): 164 ppm
Leeching in ppm (Exhaust +Wash + pad, exhaust 0.1% o.w.f. each in mixture, 10 gm/liter pad): 254 ppm
Leeching in ppm (Exhaust +Wash + pad, exhaust 0.25% o.w.f. each in mixture, 1 gm/liter pad): 196 ppm
Leeching in ppm (Exhaust +Wash + pad, exhaust 0.25% o.w.f. each in mixture, 5 gm/liter pad): 212 ppm
Leeching in ppm (Exhaust +Wash + pad, exhaust 0.25% o.w.f. each in mixture, 10 gm/liter pad): 324 ppm
Leeching in ppm (Exhaust +Wash + pad, exhaust 0.5 (% o.w.f) each in mixture, 1 gm/liter pad): 375 ppm
Leeching in ppm (Exhaust +Wash + pad, exhaust 0.5 (% o.w.f) each in mixture, 5 gm/liter pad): 435 ppm
Leeching in ppm (Exhaust +Wash + pad, exhaust 0.5 (% o.w.f) each in mixture, 10 gm/liter pad): 578 ppm
Leeching in ppm (Exhaust +Wash + pad, exhaust 1.0% o.w.f. each in mixture, 1 gm/liter pad): 475 ppm
Leeching in ppm (Exhaust +Wash + pad, exhaust 1.0% o.w.f. each in mixture, 5 gm/liter pad): 546 ppm
Leeching in ppm (Exhaust +Wash + pad, exhaust 1.0% o.w.f. each in mixture, 10 gm/liter pad): 656 ppm
Leaching of active ingredients (in ppm) (exhaust 60° C., solution dosage 1% o.w.f, process time 60 min): 21 ppm
Leaching of active ingredients (in ppm) (exhaust 60° C., solution dosage 1% o.w.f, process time 90 min): 13 ppm
Leaching of active ingredients (in ppm) (exhaust 60° C., solution dosage 1% o.w.f, process time 120 min): 13 ppm
Leaching of active ingredients (in ppm) (exhaust 60° C., solution dosage 1% o.w.f, process time 180 min): 12 ppm
Leaching of active ingredients (in ppm) (exhaust 60° C., solution dosage 1% o.w.f, process time 240 min): 15 ppm
Leaching of active ingredients (mixture 0.2% o.w.f. each): 0.3 ppm
Leaching of active ingredients (mixture 0.5% o.w.f. each): 0.5 ppm
Leaching of active ingredients (mixture 1% o.w.f. each): 0.9 ppm
Leaching of active ingredients (in ppm) (exhaust 80° C., 1% o.w.f, 60 min, curing 170° C., curing dwell time 0.5 min): 28 ppm
Leaching of active ingredients (in ppm) (exhaust 80° C., 1% o.w.f, 60 min, curing 170° C., curing dwell time 1.0 min): 24 ppm
Leaching of active ingredients (in ppm) (exhaust 80° C., 1% o.w.f, 60 min, curing 170° C., curing dwell time 1.5 min): 21 ppm
Leaching of active ingredients (in ppm) (exhaust 80° C., 1% o.w.f, 60 min, curing 170° C., curing dwell time 2.0 min): 13 ppm
Leaching of active ingredients (in ppm) (exhaust 80° C., 1% o.w.f, 60 min, curing 170° C., curing dwell time 2.5 min): 19 ppm
Leaching of active ingredients (in ppm) (exhaust 80° C., 1% o.w.f, 60 min, curing 170° C., curing dwell time 3.0 min): 19 ppm
Leaching of active ingredients (in ppm) (exhaust 80° C., 1% o.w.f, 60 min, curing 180° C., curing dwell time 0.5 min): 21 ppm
Leaching of active ingredients (in ppm) (exhaust 80° C., 1% o.w.f, 60 min, curing 180° C., curing dwell time 1.0 min): 13 ppm
Leaching of active ingredients (in ppm) (exhaust 80° C., 1% o.w.f, 60 min, curing 180° C., curing dwell time 1.5 min): 13 ppm
Leaching of active ingredients (in ppm) (exhaust 80° C., 1% o.w.f, 60 min, curing 180° C., curing dwell time 2.0 min): 4 ppm
Leaching of active ingredients (in ppm) (exhaust 80° C., 1% o.w.f, 60 min, curing 180° C., curing dwell time 2.5 min): 12 ppm
Leaching of active ingredients (in ppm) (exhaust 80° C., 1% o.w.f, 60 min, curing 180° C., curing dwell time 3.0 min): 12 ppm
Leaching of active ingredients (in ppm) (exhaust 80° C., 1% o.w.f, 60 min, curing dwell time at 190° C. (title): 0.5 min): 18 ppm
Leaching of active ingredients (in ppm) (exhaust 80° C., 1% o.w.f, 60 min, curing dwell time at 190° C. (title): 1.0 min): 12 ppm
Leaching of active ingredients (in ppm) (exhaust 80° C., 1% o.w.f, 60 min, curing dwell time at 190° C. (title): 1.5 min): 10 ppm
Leaching of active ingredients (in ppm) (exhaust 80° C., 1% o.w.f, 60 min, curing dwell time at 190° C. (title): 2.0 min): 10 ppm
Leaching of active ingredients (in ppm) (exhaust 80° C., 1% o.w.f, 60 min, curing dwell time at 190° C. (title): 2.5 min): 24 ppm
Leaching of active ingredients (in ppm) (exhaust 80° C., 1% o.w.f, 60 min, curing dwell time at 190° C. (title): 3.0 min): 35 ppm

Source: patent publication US20210254272A1, “TEXTILES HAVING ANTIMICROBIAL PROPERTIES” (Livinguard AG, priority 2015, published 2021)
